As for `CC(c1nc2ccccc2c(=O)n1-c1ccc(F)cc1)N(Cc1ccccn1)C(=O)Cc1ccc(C(F)(F)F)cc1.Cl` (stereo not shown), the melting point (as a rule, the temperature of the solid-liquid transition) is 159.2 °C.

These data come from patent publication US7053215B2, “Substituted Quinazolin-4(3H)-one compounds, compositions, and methods for their use” (Amgen SF, LLC, priority 2000, dated 2006).
